Laboratory results as given in patent US8221993B2, “Methods of detecting methyl transferase activity and methods of screening for methyl transferase activity modulators” (Onco Therapy Science, Inc., priority 2004, dated 2012).

What was measured:
Assay type in all cases: biochemical
ZNFN3A1 [1] = target: T1, ZNFN3A1 (Homo sapiens, UniProt Q9H7B4, K13N); test: In vitro histone H3-K4 methyltransferase assay, peptide competition; parameters: made in house; host or cells: transfected mammalian cells (293T), anti-Flag immunoprecipitate; details: recombinant histone H3, SAM and HSP90A, addition of competitor peptide, FIG. 2b
T1 sequence (Q9H7B4 1-428 K13N): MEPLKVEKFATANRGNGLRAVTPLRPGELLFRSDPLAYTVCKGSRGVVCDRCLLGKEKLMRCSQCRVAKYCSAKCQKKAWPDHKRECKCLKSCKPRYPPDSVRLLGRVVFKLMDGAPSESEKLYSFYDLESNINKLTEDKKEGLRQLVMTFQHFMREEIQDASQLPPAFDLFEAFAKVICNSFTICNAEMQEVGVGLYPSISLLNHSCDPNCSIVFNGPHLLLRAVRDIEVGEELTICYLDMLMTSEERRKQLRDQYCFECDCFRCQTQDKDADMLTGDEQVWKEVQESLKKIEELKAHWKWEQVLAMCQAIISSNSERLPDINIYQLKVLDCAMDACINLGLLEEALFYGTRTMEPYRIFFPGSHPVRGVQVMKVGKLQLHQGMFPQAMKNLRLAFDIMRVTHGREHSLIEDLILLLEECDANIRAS
Protocol: H3-K4 specific methyltransferase activity was examined by western blot analysis of recombinant Xenopus H3 protein (UBI) incubated with the immunoprecipitants in the presence of 20 μM unlabeled S-adenosyl-L-methionine (SAM) and 2 μg of HSP90A for 1 hr at 30° C., using antibodies against mono-methylated (Abcam; ab8895), di-methylated (Abcam; ab7766), tri-methylated (Abcam; ab8580) H3-K4, total H3 (Abcam; ab1791), or tri-methylated H3-K9 (UBI; 07523). Lysates of cells transfected with plasmid expressing Flag-tagged wild-type ZNFN3A1, mutant ZNFN3A1, SET7/9, SUV39H1, or mock were immunoprecipitated with anti-Flag antibody (Sigma). Peptides to di-methylated H3-K4 (Abcam; ab7768, ARTK-Me2-QTAR-GGC) and di-methylated H3-K9 (Abcam; ab1772, QTARK-Me2-ST-GGC) were used for competition assay. Recombinant ZNFN3A1 was expressed in E. coli bacteria with plasmids expressing GST-fused ZNFN3A1 or in Sf9 cells with plasmids expressing HA-tagged ZNFN3A1. H3-methyltransferase activity was also analyzed in the presence or absence of 0.04 U SAHH (Sigma) using immunoprecipitated ZNFN3A1 protein or recombinant ZNFN3A1 purified from Sf9 cells.
Since proteins containing SET domain play a crucial role in methylation of histone H3 lysine 4 (H3-K4) or lysine 9 (H3-K9), we investigated whether ZNFN3A1 has an ability to methylate H3-K4 or H3-K9. […]

ZNFN3A1 [2] = target: T1, ZNFN3A1; test: In vitro histone H3 methyltransferase activity in the presence or absence of SAHH; parameters: made in house; host or cells: 293T cells transfected with pFLAG-CMV-ZNFN3A1, anti-Flag immunoprecipitate; details: presence versus absence of SAHH, FIG. 3d
Protocol: (§1) 293T cells were transfected with plasmid expressing Flag-tagged ZNFN3A1 (pFLAG-CMV-ZNFN3A1), SET7 protein or mock, and purified tagged proteins by immunoprecipitation with anti-Flag antibody. In vitro HMTase assay was performed according to the protocol (1) with a slight modification. Briefly, immunoprecipitated protein was incubated with 25 μg of free histones (mixture of H3, H2B, H2A and H4; Roche) as substrates and 2.5 μCi S-adenosyl-L-[methyl-^3H] methionine as methyl donor in a mixture of 40 μl of methylase activity buffer (50 mM Tris-HCl pH 8.5, 20 mM KCl, 10 mM MgCl2, 10 mM β-mercaptoethanol, 250 mM sucrose), for 60 min at 37° C. […]
H3-K4 specific methyltransferase activity was examined by western blot analysis of recombinant Xenopus H3 protein (UBI) incubated with the immunoprecipitants in the presence of 20 μM unlabeled S-adenosyl-L-methionine (SAM) and 2 μg of HSP90A for 1 hr at 30° C., using antibodies against mono-methylated (Abcam; ab8895), di-methylated (Abcam; ab7766), tri-methylated (Abcam; ab8580) H3-K4, total H3 (Abcam; ab1791), or tri-methylated H3-K9 (UBI; 07523). […] H3-methyltransferase activity was also analyzed in the presence or absence of 0.04 U SAHH (Sigma) using immunoprecipitated ZNFN3A1 protein or recombinant ZNFN3A1 purified from Sf9 cells. […]

ZNFN3A1 [3] = target: T1, ZNFN3A1; test: In vitro HMTase assay of SET domain of ZNFN3A1 with/without recombinant HSP90A; parameters: made in house; host or cells: transfected mammalian cells (293T), anti-Flag immunoprecipitate; details: wild-type SET of ZNFN3A1, SAM and histones, with recombinant HSP90A, FIG. 1c lane 4 and 5
Protocol: as §1
Proteins containing the wild-type SET domain of ZNFN3A1 and two forms of mutant protein that lacked one of the two regions were prepared, and cross-linked equal amount of each protein with [^3H]-labeled SAM by exposure to UV-radiation. […] The wild-type SET or control recombinant protein of SET7 was further incubated with [^3H]-labeled SAM and a mixture of histones as substrates, and labeled protein after the separation on SDS-PAGE was measured. As expected, a strong band corresponding to [^3H]-labeled histone H3 protein by the control SET7 (FIG. 1c, lane 3) was detected. When substrates were incubated with the wild-type SET of ZNFN3A1, a faint band corresponding to labeled histone H3 was detected, which was not observed with mock (FIG. 1c, lane 1 and 2). […]

| di- and tri-methylation of H3-K4 by wild-type ZNFN3A1 (ZNFN3A1 [1]) | Substance | also measured |
| --- | --- | --- |
| completely inhibited | ARTK-Me2-QTAR-GGC [di-methylated H3-K4 peptides] | – |
| unaffected | QTARK-Me2-ST-GGC [di-methylated H3-K9 peptides] | – |
| – | S-adenosyl homocysteine hydrolase [SAHH] | H3 methyltransferase activity of Flag-tagged ZNFN3A1 (ZNFN3A1 [2]): significantly higher |
| – | HSP90A: recombinant 90-kD heat shock protein, interacting protein of ZNFN3A1 | methyl transferase activity onto histone H3 (ZNFN3A1 [3]): enhanced methyl transferase activity |
